What was measured:
[1] = test system: blood-brain barrier (BBB)
Description: EB dye is used as the non-BBB permeable substance. […] Photos of the perfused brain tissues are taken for observations and comparisons.
EB dye is used as a non-BBB-permeable substance. […] Photographs of the perfused brain tissues harvested at different time points are taken for observation and comparison, as shown in FIG. 9 of the drawings.
As a negative control, photographs of perfused brain tissues were taken from the following animals: the normal untreated mice; the mice were intravenously administered 2% EB; and the mice received the same dose of 0.3% EA mixed with a 2% EB solution intravenously as applied via intracardiac injection.

[2] = test system: brain tissues; settings: IA 0.3% ethyl alcohol vs normal untreated mouse
Procedure: Ultrathin sections of the brains previously processed with Pelco BioWave Pro (Pelco, Fresno, CA USA) are cut at 99 nm and collected on 200-mesh copper grids. The grids are post-stained in uranyl acetate (0.2%) and filtered for 15 min. Grids are further stained with lead citrate and filtered for 5 min. The Tecnai Spirit G2TEM (Nanoscience Initiative, Nicholas Terrace, New York, USA) with an installed Mega View camera is used to image the samples. The micrographs are illustrated in FIG. 5 of the drawings. The scale bar is 2 μm.

[3] = test system: brain tumor; settings: IA ethyl alcohol + IA or IV Anti-PD-1, mice
Description: The standard detailed protocol is followed. Primary antibodies used are FITC-conjugated Armenian hamster anti-mouse PD-1 (11-9985-82, ThermoFisher Scientific, San Diego, CA USA), and rat anti-mouse PD-1 (BE0146, Bio X Cell, West Lebanon, NH USA). The secondary antibody is ALEXA FLUOR® 647 goat anti-rabbit (ab150083, Abcam).

[4] = test system: syngeneic mouse glioma; settings: IA ethyl alcohol+Anti-PD-1 antibody vs untreated control and IV Anti-PD-1 antibody
Procedure: Standard protocols for immunohistochemistry are followed. The primary antibody is rabbit anti-CD8 (ab4055, Abcam). Three independent experimental fields are examined, and images are analyzed and quantitated using ImageJ software of the National Institutes of Health.

[5] = test system: blood-brain barrier (BBB); test: Comparison of intracardiac EA and NEO100 mediated BBB opening, EB dye (Comparative Experiment 19, Experiment 20); type: in vivo, mice; settings: mice
Procedure: Intracardiac injected various concentrations of EA (at 25%, 20%, 3%, 0.3%, and 0.1%, 0.03%, 0.01%) and NEO100 (at 25%, 20%, 3%, 0.3%, and 0.1%, 0.03%, 0.01%) are used on mice to test their effects on BBB disruption and evaluated by the observation of extravasated EB dye in the brain tissues. […] Photographs of the perfused brain tissues from the experimental mice treated with […] EA and NEO100 are taken for observation and comparison.
The same procedure as experiment 19 was performed with IA 0.3% NEO100 with 2% EB dye solution.

[6] = test system: blood-brain barrier (BBB); settings: rats
Description: In this experiment, the microcatheter is placed in the left internal carotid artery (ICA). The left internal carotid artery (ICA) leads to the left hemisphere of the brain. (That is, the selected intracerebral artery is the left internal carotid artery (ICA); and the target area is the left hemisphere of the brain.)
Evans blue (EB) dye is used as the non-BBB permeable substance.
To validate the limited, localized, and targeted BBB opening mediated by intra-arterial EA around the area supplied by the corresponding artery, a microcatheter is inserted from the CCA, proceeded along the ICA, positioned at the origin of the MCA, and infused with 300 μL of a 3% EA in a 2% EB dye solution. The effect of the compromised BBB can be determined by observing the penetration of the EB dye (doesn't pass through the BBB in normal physical condition).

[7] = test system: blood-brain barrier (BBB); test: Microcatheter 3% EA-mediated delivery of CD3-positive CAR T cells, confocal imaging (Experiment 26); type: in vivo; settings: microcatheter 3% EA + 2×10^6 CAR T cells, normal rat
Procedure: Similarly, the efficacy of microcatheter placement and infusion of an optimal 3% EA-mediated delivery of CAR T cells is validated. The CAR T cells are human CD3 positive, which can be analyzed by immunohistochemistry staining using rabbit anti-human CD3 primary antibody and Alexa Fluor 647-labeled goat anti-rabbit IgG secondary antibody to detect CD3 expression on the surface of CAR T cells by confocal imaging, as shown in FIG. 19. […] The confocal imaging staining is performed to detect the spreading of CD3-positive CAR T cells. The blue color comes from the DAPI-stained nuclei. The red color is Alexa Fluor 647-labeled […], as only the human CAR T cells are CD3 positive.

[8] = test system: intracranial HER2-positive 4T1 breast cancer; settings: IA ethyl alcohol with IV Trastuzumab vs IV Trastuzumab, mice with intracranial HER2-positive 4T1 tumor
[9] = test system: tight junction proteins; settings: immediately after IA EA is administered
Description: The membrane and cytosolic proteins are extracted with a MEM-PER™ Plus Membrane Protein Extraction Kit (ThermoFisher Scientific, Waltham, MA USA). Proteins are separated by SDS-PAGE and transferred to nitrocellulose membranes. Primary antibodies used are rabbit anti-claudin-3 (ab15102), rabbit anti-claudin-5 (ab15106), rabbit anti-claudin-6 (ab99226), rabbit anti-JAM (ab125886), rabbit anti-occludin (ab222691, 1:200, Abcam, Cambridge, MA USA), and mouse anti-β-actin (66009, 1:1000, Proteintech, Rosemont, IL USA). Secondary antibodies used are HRP-conjugated goat anti-mouse (SA00001, 1:2500, Proteintech) and goat anti-rabbit (7074, 1:2500, Cell Signaling Technology).
Western Blot examined and quantified the tight junction proteins in brain tissues.

[10] = test system: blood-brain barrier (BBB); settings: intracardiac EA 3%, 1%, 0.3%, 0.1%, and 0.01% in 2% EB, rats
Description: Set up the ultrasound imaging system before anesthetizing the rats; to anesthetize the rats in an induction chamber using 3-4% isoflurane in 100% oxygen at a rate of 0.2-0.5 L/min; to confirm proper anesthetization before performing imaging by pinching the toe, rolling the rats. • 2. Remove the fur over the thorax area using hair removal cream. • 3. Place the experimental animal on the imaging table in the supine position and secure both the upper and lower limbs with adhesive tape to avoid body movement during the procedure. • 4. Clean up the skin of the thorax area using a 10% povidone/iodine swab followed by a 70% ethanol swab. Apply a thick layer of gel to the thorax area of the animal. • 5. Mount the transducer and adjust the position until the left ventricle is clearly visible. • 6. […] To visualize pulsating blood, keep a small air column in the syringe; advance the syringe towards the animal thorax, adjust the needle trajectory using the ultrasound guidance, and enter the left ventricle, and to complete the IC injection within 30 seconds. • 7. Withdraw the needle, release that rat, and monitor until complete recovery from anesthesia
The rats are treated with varying concentrations of EA via intracardiac injection. […] Sham control (without treatment as negative control) is included in this experiment.

[11] = test system: blood-brain barrier (BBB); settings: group B: 300 μl 3% EA infused in 5 seconds, room temperature
[12] = cited from earlier work

SMILES: CCO [ethyl alcohol]
- extravasated EB dye in brain after intravenous EA ([1]; 0.3% EA mixed with 2% EB given intravenously (negative control route), mice): No extravasated EB dye in any parts of the brain
- BBB opening at 0 min time point ([1]; IA 0.3% EA then IV 2% EB, euthanized immediately, mice): immediate, homogeneous, and highly efficient BBB opening
- level of blue color observed in the brain as lagged time of EB administration increased ([1]; IA 0.3% ethyl alcohol, EB at 15, 60, 120, 240 min after, mice): decreased
- interval window of the breached BBB ([1]; IA EA): about 2 hours
- adverse effects ([1]; IA/intracardiac 0.3% EA, mice): occasional adverse effects, such as mild epilepsy, but no moderate to severe epilepsy and sudden death were observed
- duration of transient BBB opening ([1]; iv, 0.25 h): ≤ 120 min
- ultrastructure of brain tissues (TEM) [2]: many open spaces
- anti-PD-1 antibody brain tumor entry [3]: can mediate checkpoint inhibitor anti-PD-1 antibody brain tumor entry
- replenishment of CD8+ T lymphocytes inside the tumor [4]: significantly enhance the replenishment of CD8+ T lymphocytes
- pattern of BBB opening, coronal section ([5]; IA 0.1% EA): homogenized BBB opening
- dose response of BBB disruption ([5]; intracardiac 25%, 20%, 3%, 0.3%, 0.1%, 0.03%, 0.01%): dose-reverse response
- extent of BBB opening (EB dye penetration) ([6]; 300 μL 3% EA in 2% EB, microcatheter at origin of MCA): site-specific BBB opening, which is limited to the area supplied by the MCA only
- delivery of EB dye to target area ([6]; EA 0.1% to 0.5%, microcatheter in left ICA): can be used to deliver EB dye to the left hemisphere of the brain
- delivery of CAR T cells into brain tissue [7]: can deliver BBB-impermeable CAR T cells into normal rat brain tissue
- Trastuzumab brain tumor entry (integrated optical density, confocal imaging) [8]: significantly enhance
- time for which tight junction proteins in the BBB are reduced [9]: about 120 minutes
- tinted blue color (extravasated Evans blue) in brain [10]: observed in all treatment groups
- EB (induced BBB disruption) [11]: observed
- solubility in water [12]: infinitely soluble (fully miscible)

— patent US12539281B2 (priority 2021, dated 2026)
